Data from ChEMBL document CHEMBL1132232, “7alpha-Iodo and 7alpha-fluoro steroids as androgen receptor-mediated imaging agents” (J Med Chem, 1999).

Tests used:
[1] = molecular target: T1, Androgen receptor (Homo sapiens) (UniProt P10275); details: CV-1
T1 sequence (whole entry): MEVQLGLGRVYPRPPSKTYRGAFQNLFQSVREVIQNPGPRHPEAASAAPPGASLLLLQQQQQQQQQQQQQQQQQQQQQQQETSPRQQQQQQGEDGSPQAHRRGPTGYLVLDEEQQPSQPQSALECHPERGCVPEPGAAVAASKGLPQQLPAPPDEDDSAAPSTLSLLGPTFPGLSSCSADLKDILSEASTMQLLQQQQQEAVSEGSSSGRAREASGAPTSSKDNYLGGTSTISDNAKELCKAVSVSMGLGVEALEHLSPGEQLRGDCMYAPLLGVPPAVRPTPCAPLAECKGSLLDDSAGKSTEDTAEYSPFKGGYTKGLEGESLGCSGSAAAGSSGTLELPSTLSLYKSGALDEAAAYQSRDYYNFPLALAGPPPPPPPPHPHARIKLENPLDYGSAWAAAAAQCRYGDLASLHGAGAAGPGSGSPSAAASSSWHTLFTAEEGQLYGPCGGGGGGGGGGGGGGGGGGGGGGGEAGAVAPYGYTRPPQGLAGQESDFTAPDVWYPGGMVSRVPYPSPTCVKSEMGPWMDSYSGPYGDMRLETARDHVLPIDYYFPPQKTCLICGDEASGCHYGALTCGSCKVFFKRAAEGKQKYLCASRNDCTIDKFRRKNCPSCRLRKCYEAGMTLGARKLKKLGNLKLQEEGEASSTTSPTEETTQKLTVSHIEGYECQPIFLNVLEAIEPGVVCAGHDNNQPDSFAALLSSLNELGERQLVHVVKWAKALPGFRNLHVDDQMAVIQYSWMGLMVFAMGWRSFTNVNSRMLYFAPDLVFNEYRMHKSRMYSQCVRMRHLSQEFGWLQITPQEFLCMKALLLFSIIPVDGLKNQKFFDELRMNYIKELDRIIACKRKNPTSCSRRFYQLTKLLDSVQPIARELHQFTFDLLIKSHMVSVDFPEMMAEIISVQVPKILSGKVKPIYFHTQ
Description: Relative stimulatory activity compared to 5-alpha-DHT in CV-1 cells expressing androgen receptor

[2] = test system: Rattus norvegicus; experiment: Distribution of tissue Radioactivity following Intravenous injection into castrated male rat prostate/blood; type: ADME, organism-based; details: other tissue
[3] = test system: Rattus norvegicus; experiment: Distribution of tissue Radioactivity following Intravenous injection into castrated male rat and 5-alpha-DHT was reported; type: ADME, organism-based; details: in vivo

CC12CC[C@H]3[C@@H]([C@H](I)CC4CC(=O)CCC43C)[C@@H]1CCC2O (stereo partly drawn)
RSA [1]: 20
Biodistribution [2]: 1.34%
Biodistribution [3]: 0.94%
